Measurements published in PubChem BioAssay (NCI).
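Results reflect a 48-hour exposure of cells in 96-well plates to compound at five concentrations. TGI denotes the concentration required for complete inhibition of growth.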

Tests used:
Assay in all cases: NCI tumour cell line growth inhibition, 48 h
786-0 renal = tested on: 786-0 renal
A498 renal = tested on: A498 renal
A549 NSCLC = tested on: A549 NSCLC
ACHN renal = tested on: ACHN renal
CAKI-1 renal = tested on: CAKI-1 renal
CCRF-CEM leukemia = tested on: CCRF-CEM leukemia
COLO 205 colon = tested on: COLO 205 colon
DU-145 prostate = tested on: DU-145 prostate
EKVX NSCLC = tested on: EKVX NSCLC
HCT-116 colon = tested on: HCT-116 colon
HCT-15 colon = tested on: HCT-15 colon
HL-60(TB) leukemia = tested on: HL-60(TB) leukemia
HOP-62 NSCLC = tested on: HOP-62 NSCLC
HOP-92 NSCLC = tested on: HOP-92 NSCLC
HS 578T breast = tested on: HS 578T breast
HT29 colon = tested on: HT29 colon
IGROV1 ovarian = tested on: IGROV1 ovarian
K-562 leukemia = tested on: K-562 leukemia
KM12 colon = tested on: KM12 colon
LOX IMVI melanoma = tested on: LOX IMVI melanoma
M14 melanoma = tested on: M14 melanoma
MCF7 breast = tested on: MCF7 breast
MDA-MB-231 breast = tested on: MDA-MB-231 breast
MDA-MB-435 = tested on: MDA-MB-435
MDA-N = tested on: MDA-N
MOLT-4 leukemia = tested on: MOLT-4 leukemia
NCI-H226 lung = tested on: NCI-H226 lung
NCI-H23 lung = tested on: NCI-H23 lung
NCI-H460 lung = tested on: NCI-H460 lung
NCI-H522 lung = tested on: NCI-H522 lung
NCI/ADR-RES ovarian = tested on: NCI/ADR-RES ovarian
OVCAR-3 ovarian = tested on: OVCAR-3 ovarian
OVCAR-4 ovarian = tested on: OVCAR-4 ovarian
OVCAR-5 ovarian = tested on: OVCAR-5 ovarian
OVCAR-8 ovarian = tested on: OVCAR-8 ovarian
PC-3 prostate = tested on: PC-3 prostate
RPMI-8226 leukemia = tested on: RPMI-8226 leukemia
SF-268 CNS = tested on: SF-268 CNS
SF-295 CNS = tested on: SF-295 CNS
SF-539 CNS = tested on: SF-539 CNS
SK-MEL-2 melanoma = tested on: SK-MEL-2 melanoma
SK-MEL-28 melanoma = tested on: SK-MEL-28 melanoma
SK-MEL-5 melanoma = tested on: SK-MEL-5 melanoma
SK-OV-3 ovarian = tested on: SK-OV-3 ovarian
SN12C renal = tested on: SN12C renal
SNB-19 CNS = tested on: SNB-19 CNS
SNB-75 CNS = tested on: SNB-75 CNS
SR leukemia = tested on: SR leukemia
SW-620 colon = tested on: SW-620 colon
T-47D breast = tested on: T-47D breast
TK-10 renal = tested on: TK-10 renal
U251 CNS = tested on: U251 CNS
UACC-257 melanoma = tested on: UACC-257 melanoma
UACC-62 melanoma = tested on: UACC-62 melanoma
UO-31 renal = tested on: UO-31 renal

Measured: TGI

C=C(CCOC)CCC1CCCCC(=C)[C@H]1OC(C)=O (stereo not given in full)
> 100 µM: all assays above
